The text below walks through data of patent US8614230B2, “Derivatives of the aminated hydroxyquinoline class for treating cancers” (Biopharmed, priority 2007, dated 2013).

In data set [1] the test system is KB cells. The experiment in a line: Cytotoxicity / cell viability on KB cells (colony-forming assay). In kind it is cell-based, human. The settings on record: for Cytotoxicity on KB cells (percentage inhibition of cell viability): relative to reference without compound. The procedure:
Cancerous KB cells are also considered, to determine the cell viability (or survival rate). This cell viability is determined according to the teaching of Nicholson K. M. et al., British Journal of Cancer, 1999, 81, 423-430.
KB cells are human carcinoma cell lines, KB-3-1. These cells are maintained in a culture medium, “Dulbecco's modified Eagle's medium” (DMEM—Sigma), which contains 0.11 g/l of sodium pyruvate and 4.5 g/l of glucose, supplemented with 10% (v/v) fetal calf serum, penicillin (32 μg/ml) and streptomycin (50 μg/ml). The cells are cultured as monolayers and are incubated at 37° C. in a humid atmosphere (95% air/5% CO2).
The preceding KB cells are then incubated in 6- or 96-well plates in the presence of the test compounds of the invention, dissolved in dimethyl sulfoxide (DMSO). The content of surviving cells is measured by the “colony-forming assay” test, in which the cells are redistributed at a density of 100 to 300 cells per well in 24-well plates, for a period of 8 days, and are then stained with Leishman's reagent (0.2% in methanol). The colonies of more than 50 cells are counted visually under a microscope, the survival rate being expressed on the colonies formed in the presence of the compounds of the invention relative to cell colonies not treated with said compounds. The determination of the IC50 values (concentration of compounds in the reaction medium for which 50% of the tested tumor cells survived the treatment) enables comparison of the efficacy of these compounds.

In data set [2] the test system is U87/GFP cells. The data set can be described thus: Antiproliferative effect on U87/GFP cells (flash cytometry). To be noted: for inhibition at 10 µM / inhibition at 2 µM: read-out: Antiproliferative effect on U87/GFP cells: percentage inhibition; for pIC50: concentration giving 50% inhibition of proliferation. In kind it is cell-based, human. The procedure: For the U-87/GFP cells, the control of cell proliferation and migration in the presence of the compounds (I) of the invention is performed via a colorimetric method (MTS) and is performed according to known standard protocols. The methodologies implemented use flash cytometry (Trophos S.A., Marseilles, France). The flash cytometry technique involves fluorescence, which consists of irradiating a compound at a set wavelength and of recording the fluorescence emitted at another wavelength. This technique is performed with a flash cytometer and adapted for 96-well test plates. The excitation and emission wavelengths in the context of use of this fluorescence are located in the 485-495 nm range. The measured fluorescence expresses the amount of cells surviving after treatment with the compounds of the invention. The publications by Luby-Phelps K. et al., J. Histochemistry and Cytometry, 2003, 51, 271-274 and Modarai B. et al., Circulation, 2005, 111, 2645-2653 may be mentioned by way of reference for the above methods.
The cells of the U87/GFP lines are cultured in 96-well plates according to a standard methodology described by Bajetto et al., Neurochemistry International, 2006, 43, 31-38 in the presence of different concentrations of the compounds of the invention.
The cell proliferation is determined and quantified according to standard methods known to those skilled in the art. A 100% proliferation is attributed to the untreated cells and a percentage less than 100% is obtained when the same cells are treated with the compounds of the invention.
(§1) The cell proliferation and migration are determined by imaging using a flash cytometer (Trophos S.A., Marseilles, France), and the calculations are performed using the “Metamorph 4.6” imaging signal processing software (Molecular Devices, USA), the use of which, which is known in the field, makes it possible to determine the above two effects independently of each other.

Data set [3] deals with U87/GFP cells. The data set can be described thus: Antimigratory effect on U87/GFP cells (scratch technique). To be noted: for IC50: concentration giving 80% inhibition of migration. In kind it is cell-based, human. How it is done:
The determination of the antimigratory activity of the compounds (I) of the invention on these same cell lines, cultured in MEM medium (Minimum Essential Medium) is performed via the “scratch” technique that consists in scratching a cell lawn using a micropipette cone. By comparison with these same cells not containing the compounds of the invention, the antimigratory effect is determined. A 100% migration is attributed to the untreated cells, whereas, as a function of the concentration of the compounds (I) of the invention, total stoppage of migration is determined by observation of the “scratch” remaining unfilled by the cell migration, by means of computer software.
as §1

Data set [4] concerns mice. The settings on record: comparison value for anticancer drugs; cited from earlier work.
Setting [5] is: Homo sapiens, KB, approximate value given in the description, read-out: cytotoxic activity IC50 on KB cells.
[6] abbreviates: Homo sapiens, KB, first value of two experiments performed in parallel, read-out: Cytotoxicity on KB cells (IC50).
[7] abbreviates: Homo sapiens, KB, second value of two experiments performed in parallel, read-out: Cytotoxicity on KB cells (IC50).
[8] abbreviates: first value of two experiments performed in parallel, read-out: Cytotoxicity on KB cells (IC50).
Setting [9] is: second value of two experiments performed in parallel, read-out: Cytotoxicity on KB cells (IC50).

Each structure is given as a SMILES string. pIC50: −log10 of the molar value. Where two headings read alike, the source gives them in different places. Where only a bound is given, the exact number is not on record here.

The term pIC50 denotes the IC50 on a negative log10 scale, so that one unit is a factor of ten. By IC50 is commonly meant the concentration that gives 50% inhibition. Read a low IC50 as greater potency.

For `CC(C)(C)OC(=O)N1CCCN(Cc2ccc(O)c3ncccc23)CCCN(C(=O)OC(C)(C)C)CCN(C(=O)OC(C)(C)C)CCC1` [I2, tri-tert-butyl 12-((8-hydroxyquinolin-5-yl)methyl)-1,4,8,12-tetraazacyclopentadecane-1,4,8-tricarboxylate], in data set [1] (at 1 μM), the “Cytotoxicity on KB cells (percentage inhibition of cell viability)” value was 28% at 1 μM.
Regarding `CC(C)(C)OC(=O)N1CCCN(C(=O)OC(C)(C)C)CCN(C(=O)OC(C)(C)C)CCCNC(Cc2ccc(O)c3ncccc23)CC1` (stereo not shown) [I3, tri-tert-butyl 11-((8-hydroxyquinolin-5-yl)methyl)-1,4,8,12-tetraazacyclopentadecane-1,4,8-tricarboxylate], the “Cytotoxicity on KB cells (percentage inhibition of cell viability)” value in data set [1] (at 1 μM) came out at 15% at 1 μM.
With `Oc1ccc(CN2CCCNCCNCCCNCC2)c2cccnc12` [I4, 5-((1,4,8,11-tetraazacyclotetradecane-1-yl)methyl)quinolin-8-ol], the “Cytotoxicity on KB cells (percentage inhibition of cell viability)” value in data set [1] (at 1 μM) worked out at 27% at 1 μM.
`Oc1ccc(CN2CCCNCCN(Cc3ccc(CN4CCCNCCNCCCNCC4)cc3)CCCNCC2)c2cccnc12` [I7, 5-((8-(4-((1,4,8,11-tetraazacyclotetradecane-1-yl)methyl)benzyl)-1,4,8,11-tetraazacyclotetradecan-1-yl)methyl)quinolin-8-ol]: the negative logarithm of the IC50 (pIC50) is roughly 7.00 in data set [1] (setting [5]), 6.91 in data set [1] (setting [6]) and 6.52 in data set [1] (setting [7]). The “Cytotoxicity on KB cells (percentage inhibition of cell viability)” value in data set [1] (at 1 μM) is 93% at 1 μM. Also, in data set [2] (percentage not given), the “Antiproliferative effect on U87/GFP cells: concentration at which activity is observed” value is 2 µM.
As for `Oc1ccc(CN2CCN(Cc3ccc(O)c4ncccc34)CC2)c2cccnc12` [I8, 5,5′-(piperazine-1,4-diylbis (methylene))diquinolin-8-ol], the pIC50 was 7.37 in data set [1] (setting [6]) and 7.49 in data set [1] (setting [7]). Also, the “Cytotoxicity on KB cells (percentage inhibition of cell viability)” value in data set [1] (at 1 μM) is 94% at 1 μM.
On to `CC(C)(C)OC(=O)N1CCCN(C(=O)OC(C)(C)C)CCN(Cc2ccc(O)c3ncccc23)CCCN(Cc2ccc(O)c3ncccc23)CC1` [I9, di-tert-butyl 4,8-bis((8-hydroxyquinolin-5-yl)methyl)-1,4,8,11-tetraazacyclotetradecane-1,11-dicarboxylate], for which the negative-log IC50 (pIC50) in data set [1] (setting [5]) was roughly 6.40; in data set [1] (setting [6]), 6.40; in data set [1] (setting [7]) it was 6.19. Further, the “Cytotoxicity on KB cells (percentage inhibition of cell viability)” value in data set [1] (at 1 μM) amounted to 77% at 1 μM.
For `Oc1ccc(CN(Cc2ccccc2)Cc2ccc(O)c3ncccc23)c2cccnc12` [I12], the “Cytotoxicity on KB cells (percentage inhibition of cell viability)” value in data set [1] (at 1 μM) stood at 93% at 1 μM. Moreover, the negative logarithm of the IC50 (pIC50) in data set [1] (setting [8]) is 8.82; in data set [1] (setting [9]), 8.30. Besides, the “Antimigratory effect on U87/GFP cells: percentage inhibition” value in data set [3] (at 2 μM) was determined as 80%. Further, the IC50 was determined as 2 µM in data set [3] and 0.5 µM in data set [2] (concentration giving 30% inhibition of proliferation). The “Antiproliferative effect on U87/GFP cells: percentage inhibition” value in data set [2] (at 0.5 μM) was determined as 30%.
As for `Oc1ccc(CNCc2ccccc2)c2cccnc12` [I13, 5-((benzylamino)methyl)quinolin-8-ol], the pIC50 was less than 6.00 in data set [1] (setting [6]), 5.89 in data set [1] (setting [7]) and 5.00 in data set [2] (Homo sapiens). Moreover, the “Cytotoxicity on KB cells (percentage inhibition of cell viability)” value in data set [1] (at 1 μM) worked out at 90% at 1 μM. Further, in data set [2] (Homo sapiens), the inhibition at 10 µM worked out at 50%.
For `Cc1ccc(CNCc2ccc(O)c3ncccc23)cc1` [I16, 5-((4-methylbenzylamino)methyl)quinolin-8-ol], the results for the pIC50 in data set [1] (setting [6]) and in data set [1] (setting [7]) were 4.96 and 5.00, respectively. Besides, the “Cytotoxicity on KB cells (percentage inhibition of cell viability)” value in data set [1] (at 2 μM) is given as 50% at 2 μM. Besides, the inhibition at 2 µM in data set [3] (Homo sapiens, at 2 μM, read-out: Antimigratory effect on U87/GFP cells: percentage inhibition) was 80%; in data set [2] (Homo sapiens), 80%. In addition, the IC50 in data set [3] and in data set [2] (concentration giving 80% inhibition of proliferation) was 2 µM each time.
Consider `Oc1ccc(NCc2cccc3ccccc23)c2cccnc12` [I17, 5-(naphthalen-1-ylmethylamino)quinolin-8-ol], for which the pIC50 is 6.00 in data set [1] (setting [6]) and 6.02 in data set [1] (setting [7]).
With `Oc1ccc(N(Cc2cccc3ccccc23)c2ccc(O)c3ncccc23)c2cccnc12` [I18, 5,5′-(naphthalen-1-ylmethylazanediyl)diquinolin-8-ol], the negative-log IC50 (pIC50) in data set [1] (setting [6]) is 8.30; in data set [1] (setting [7]), 8.35; in data set [2] (Homo sapiens) it was 5.70. Moreover, in data set [2] (Homo sapiens), the inhibition at 2 µM is 50%.
Take `CC(NCc1ccc(O)c2ncccc12)c1ccccc1` (stereo not shown) [I33]: the negative-log IC50 (pIC50) in data set [1] (setting [8]) is 6.00; in data set [1] (setting [9]), 5.96; in data set [2], 6.30. For the same molecule, the “Antiproliferative effect on U87/GFP cells: percentage inhibition” value in data set [2] (at 0.5 μM) came to 50%.
Consider `Oc1ccc(CNCc2ccc(C(F)(F)F)cc2)c2cccnc12` [I34], for which the results for the pIC50 in data set [1] (setting [8]), in data set [1] (setting [9]) and in data set [2] were 5.00, 5.05 and 5.00 to 5.30, respectively. Besides, the “Antiproliferative effect on U87/GFP cells: percentage inhibition” value in data set [2] (at 5-10 μM) is reported as 50%.
Consider `Oc1ccc(CNCc2cccc(C(F)(F)F)c2)c2cccnc12` [I35], for which the pIC50 in data set [1] (setting [8]) was 6.70; in data set [1] (setting [9]), 6.66.
For `CC(C)(C)OC(=O)N(Cc1cccc(C(F)(F)F)c1)Cc1ccc(O)c2ncccc12` [I36], the figures for the pIC50 in data set [1] (setting [8]), in data set [1] (setting [9]) and in data set [2] were 6.00, 5.96 and 5.00 to 5.30, respectively. The “Antiproliferative effect on U87/GFP cells: percentage inhibition” value in data set [2] (at 5-10 μM) was found to be 50%.
For the molecule `CC(C)(C)OC(=O)N(Cc1ccc(C(F)(F)F)cc1)Cc1ccc(O)c2ncccc12` [I37], the pIC50 in data set [1] (setting [8]) is 5.10; in data set [1] (setting [9]), 5.05; in data set [2] it was 5.00 to 5.30. Also, the “Antiproliferative effect on U87/GFP cells: percentage inhibition” value in data set [2] (at 5-10 μM) is 50%.
The matching figures for `CC(C)(C)OC(=O)N(Cc1ccccc1)Cc1ccc(O)c2ncccc12` [I38]: 6.05, 5.96, 5.00 to 5.30 and 50%.
As to `CC(=O)O[C@H]1C(=O)[C@@]2(C)[C@H]([C@H](OC(=O)c3ccccc3)[C@]3(O)C[C@H](OC(=O)[C@H](O)[C@@H](NC(=O)c4ccccc4)c4ccccc4)C(C)=C1C3(C)C)[C@]1(OC(C)=O)CO[C@@H]1C[C@@H]2O` [Taxol], the LD50 result in data set [4] is recorded as “about 10 mg/kg”.
For the molecule `Cn1nnc2c(C(N)=O)ncn2c1=O` [Temodal ®, reference compound], the inhibition at 10 µM was determined as 50% in data set [3] (Homo sapiens, at 10 μM, read-out: Antimigratory effect on U87/GFP cells: percentage inhibition) and 50% in data set [2] (Homo sapiens). For the same molecule, the negative logarithm of the IC50 (pIC50) in data set [3] (Homo sapiens, concentration giving 50% inhibition of migration) is 5.00; in data set [2] (Homo sapiens) it was 5.00.
